From patent US6861236B2, “Export and modification of (poly)peptides in the lantibiotic way” (Applied Nanosystems B.V., priority 2002, dated 2005)

Tested on: nisin sensitive strain
Test: agar well (halo) assay for antibacterial activity
Format: cell-based
Details: Example 5: trypsin-treated ziptipped material/crude supernatant of E. coli SF120 with NisABTC
Method: The above ZIPTIPPED™ material and the crude supernatant is treated after outer membrane disruption with trypsin. This material is applied to the agar well assay to determine antibacterial activity.
Materials and methods. […] NZ9000+pNG-NisABTC were grown and induced. The supernatant is analyzed as in Example 1. Trypsin treated supernatant was subjected to the agar well assay by pouring the trypsinated supernatant in an agar well and overlaying with a nisin sensitive strain.
The mutation was checked by PCR and sequencing. The above-generated ΔNisP strain was grown overnight in M17 medium (Terzaghi and Sandine, 1975, Appl. Microbiol. 29: 807-813), diluted 100 fold and grown to OD600 equal to 0.4. […] After 1, 2 and 3 hours, more 0.2 mM pmsf, 0.2 mM TPCK are added and followed by overnight incubation. […] Elution and experiments a) and b).

**Q.** For nisin, which “antimicrobial activity in the agar well assay” value is on record?
**A.** antimicrobial activity
